Assay results published in article PMC6085350, “Small molecule inhibitors of RAS-effector protein interactions derived using an intracellular antibody fragment” (Nature Communications, 2018).

Tests used:
PDK1 = target: T1, PDK1 (Homo sapiens, UniProt O15530); experiment: Kinase panel (KinaseProfiler); assay type: biochemical; conditions: PDK1, 10μM
T1 construct: purchased Eurofins Pharma Discovery Services (KinaseProfiler)
Experimental: (§1) Experiments were performed by Eurofins Pharma Discovery Services. The KinaseProfiler™ assay protocol guide can be downloaded from their website: www.eurofins.com/discoveryservices. The guide contains information on the buffer conditions, substrate and reference inhibitor blank used for each kinase.
(§2) Supplementary Table 3. Assessment of potential interaction of Abd-7 with a human kinase
(§3) Kinase % kinase activity in
(§4) A panel of 14 Kinases (relevant to the RAS pathway) has been screened against Abd-7
(§5) (10μM) and the kinase activity was measured. […] of activity was observe for all
(§6) function of the selected and RAS relevant kinase proteins.

BRAF = target: T2, BRAF (Homo sapiens, UniProt P15056); experiment: Kinase panel (KinaseProfiler); assay type: biochemical; conditions: 10μM
T2 construct: purchased Eurofins Pharma Discovery Services (KinaseProfiler)
Experimental: as §1, §2, §3, §4, §5, §6

MEK2 = target: T3, MEK2 (Homo sapiens, UniProt P36507); experiment: Kinase panel (KinaseProfiler); assay type: biochemical; conditions: MEK2, 10μM
T3 construct: purchased Eurofins Pharma Discovery Services (KinaseProfiler)
Experimental: as §1, §2, §3, §4, §5, §6

PKBβ = target: T4, PKBβ (Homo sapiens, UniProt P31751); experiment: Kinase panel (KinaseProfiler); assay type: biochemical; conditions: 10μM
T4 construct: purchased Eurofins Pharma Discovery Services (KinaseProfiler)
Experimental: as §1, §2, §3, §4, §5, §6

mTOR = target: T5, mTOR (Homo sapiens, UniProt P42345); experiment: Kinase panel (KinaseProfiler); assay type: biochemical; conditions: 10μM
T5 construct: purchased Eurofins Pharma Discovery Services (KinaseProfiler)
Experimental: as §1, §2, §3, §4, §5, §6

PKBα = target: T6, PKBα (Homo sapiens, UniProt P31749); experiment: Kinase panel (KinaseProfiler); assay type: biochemical; conditions: 10μM
T6 construct: purchased Eurofins Pharma Discovery Services (KinaseProfiler)
Experimental: as §1, §2, §3, §4, §5, §6

CRAF = target: T7, CRAF (Homo sapiens, UniProt P04049); experiment: Kinase panel (KinaseProfiler); assay type: biochemical; conditions: 10μM
T7 construct: purchased Eurofins Pharma Discovery Services (KinaseProfiler)
Experimental: as §1, §2, §3, §4, §5, §6

EGFR = target: T8, EGFR (Homo sapiens, UniProt P00533); experiment: Kinase panel (KinaseProfiler); assay type: biochemical; conditions: 10μM
T8 construct: purchased Eurofins Pharma Discovery Services (KinaseProfiler)
Experimental: as §1, §2, §3, §4, §5, §6

[1] = test system: AKT phosphorylation (Ser473) in DLD-1 cells (KRAS^G13D); experiment: Biomarker phosphorylation assay, pAKT, DLD-1; assay type: cell-based, human; conditions: EGF 10 min
Experimental: Fig. 5 Abd-7 results on RAS-dependent signalling pathways and cell viability. a, b DLD-1 (a) or H358 (b) cells were serum-starved for 24 h, incubated in mono-layer with Abd-7 in a range from 2, 5, 10 and 20 μM for 3 h and stimulated with EGF 10 min. Proteins were extracted and separated by SDS-PAGE and transferred to membranes for Western analysis with anti-pAKT, anti-pERK, anti-pan AKT and anti-pan ERK. Anti-cyclophilin B antibody was the loading control. Signal was developed using standard ECL. c–e Effects of compounds Abd-2, Abd-4, Abd-5, Abd-6, and Abd-7 on the viability of human cancer cells lines was assessed for a 2-D culture of DLD-1 (mutant KRAS^G13D) cells and HT1080 cells (mutant NRAS^Q61K). The cells were treated with a dose range from 0 μM to 20 μ and incubated for 72 h when cell viability was assessed using CellTitreGlo. […] Each experiment was repeated at least three times (a, b) and four times (c, d). Where error bars are presented, they correspond to mean values ± SD of biological repeats
A total of 450,000 DLD1 or 640,000 H358 cells were seeded per well of a six well plate. Approximately, 20 h later, the medium was removed, the cells washed twice with PBS and DMEM without FBS was added and left for 24 h. The medium was removed and 2 ml of DMEM no FBS was added with the appropriate concentration of compound (DMSO, 2, 5, 10 or 20 μM) for 3 h. Cells were stimulated with EGF (50 ng/ml) for 10 min, washed once with PBS and directly lysed in SDS-Tris buffer (1% SDS, 10 mM Tris-HCl pH 7.4) supplemented with protease inhibitors (Sigma) and phosphatase inhibitors (Thermo-Fisher). Cell lysates were sonicated with a Branson Sonifier and the protein concentrations determined by using the Pierce BCA protein assay kit (Thermo-Fisher). Furthermore, 10 μg of protein were resolved on 10 or 12.5% SDS-PAGE and subsequently transferred onto a PVDF membrane (GE). The membrane was blocked (with 10% non-fat milk (Sigma) or 10% BSA (Sigma) in TBS-0.1% Tween20) and incubated overnight with primary antibody at 4 °C. […]

T1 sequence (O15530 whole entry): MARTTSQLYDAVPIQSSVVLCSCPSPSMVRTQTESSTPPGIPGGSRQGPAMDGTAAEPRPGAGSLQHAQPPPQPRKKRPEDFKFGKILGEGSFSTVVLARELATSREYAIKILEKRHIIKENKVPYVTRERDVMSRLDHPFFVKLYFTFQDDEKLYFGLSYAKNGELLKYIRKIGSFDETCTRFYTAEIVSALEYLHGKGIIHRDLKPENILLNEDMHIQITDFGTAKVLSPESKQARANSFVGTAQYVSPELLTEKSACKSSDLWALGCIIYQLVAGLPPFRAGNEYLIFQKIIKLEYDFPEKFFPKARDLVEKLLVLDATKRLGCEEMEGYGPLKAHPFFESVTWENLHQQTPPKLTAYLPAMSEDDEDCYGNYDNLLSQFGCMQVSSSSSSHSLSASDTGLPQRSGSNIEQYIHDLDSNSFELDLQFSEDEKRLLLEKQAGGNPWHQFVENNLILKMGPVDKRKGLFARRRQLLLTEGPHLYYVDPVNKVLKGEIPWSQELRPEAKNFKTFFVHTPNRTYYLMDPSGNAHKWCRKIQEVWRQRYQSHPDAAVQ
T2 sequence (P15056 whole entry): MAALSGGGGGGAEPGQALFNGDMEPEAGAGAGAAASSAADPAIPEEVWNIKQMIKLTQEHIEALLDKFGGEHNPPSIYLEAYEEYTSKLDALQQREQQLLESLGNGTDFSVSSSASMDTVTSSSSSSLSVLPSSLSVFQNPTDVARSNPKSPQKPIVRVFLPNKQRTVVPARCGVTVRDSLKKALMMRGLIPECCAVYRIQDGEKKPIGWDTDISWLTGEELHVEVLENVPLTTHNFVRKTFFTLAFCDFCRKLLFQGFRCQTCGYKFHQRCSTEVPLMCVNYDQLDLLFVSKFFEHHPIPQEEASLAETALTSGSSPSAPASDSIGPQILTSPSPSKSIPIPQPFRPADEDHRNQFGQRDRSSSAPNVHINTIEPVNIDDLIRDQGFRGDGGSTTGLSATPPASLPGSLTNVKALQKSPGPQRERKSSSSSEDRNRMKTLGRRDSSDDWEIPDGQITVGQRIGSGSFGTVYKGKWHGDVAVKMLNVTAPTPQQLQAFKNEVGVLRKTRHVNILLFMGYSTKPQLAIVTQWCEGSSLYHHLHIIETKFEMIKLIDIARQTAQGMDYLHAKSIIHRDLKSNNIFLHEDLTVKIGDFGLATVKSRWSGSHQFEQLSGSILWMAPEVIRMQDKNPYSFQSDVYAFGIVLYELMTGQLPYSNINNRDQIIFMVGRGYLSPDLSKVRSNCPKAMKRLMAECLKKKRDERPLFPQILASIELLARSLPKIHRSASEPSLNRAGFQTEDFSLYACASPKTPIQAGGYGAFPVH
T4 sequence (P31751 whole entry): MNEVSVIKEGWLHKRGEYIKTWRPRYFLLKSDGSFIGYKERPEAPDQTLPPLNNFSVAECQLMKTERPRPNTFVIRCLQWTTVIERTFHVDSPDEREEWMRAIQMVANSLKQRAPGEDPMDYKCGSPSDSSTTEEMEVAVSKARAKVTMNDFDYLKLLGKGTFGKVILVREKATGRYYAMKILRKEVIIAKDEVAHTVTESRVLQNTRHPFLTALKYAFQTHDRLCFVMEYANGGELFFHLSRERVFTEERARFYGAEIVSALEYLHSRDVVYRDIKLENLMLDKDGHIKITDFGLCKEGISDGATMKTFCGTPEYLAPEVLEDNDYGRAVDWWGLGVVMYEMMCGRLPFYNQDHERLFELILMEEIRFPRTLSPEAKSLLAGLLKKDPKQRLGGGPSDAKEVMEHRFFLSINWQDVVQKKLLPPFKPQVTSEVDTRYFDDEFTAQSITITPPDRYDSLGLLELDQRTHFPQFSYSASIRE
T7 sequence (P04049 whole entry): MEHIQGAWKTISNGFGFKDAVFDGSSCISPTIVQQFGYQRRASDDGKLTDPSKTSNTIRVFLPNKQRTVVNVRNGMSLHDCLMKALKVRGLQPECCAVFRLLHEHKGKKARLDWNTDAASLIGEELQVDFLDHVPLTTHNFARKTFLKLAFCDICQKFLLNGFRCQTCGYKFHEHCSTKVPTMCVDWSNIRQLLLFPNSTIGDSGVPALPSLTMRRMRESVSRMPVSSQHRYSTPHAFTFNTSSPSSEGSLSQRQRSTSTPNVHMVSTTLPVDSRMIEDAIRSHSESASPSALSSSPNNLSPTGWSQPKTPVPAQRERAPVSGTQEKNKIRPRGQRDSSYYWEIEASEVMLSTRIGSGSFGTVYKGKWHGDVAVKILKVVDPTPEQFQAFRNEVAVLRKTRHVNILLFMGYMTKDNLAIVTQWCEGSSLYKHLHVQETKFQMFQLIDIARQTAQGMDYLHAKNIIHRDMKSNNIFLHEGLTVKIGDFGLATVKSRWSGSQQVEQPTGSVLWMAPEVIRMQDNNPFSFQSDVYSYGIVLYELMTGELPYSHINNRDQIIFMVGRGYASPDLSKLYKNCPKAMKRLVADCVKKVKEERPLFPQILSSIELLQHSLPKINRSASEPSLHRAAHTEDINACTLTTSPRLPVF
T8 sequence (P00533 25-1210): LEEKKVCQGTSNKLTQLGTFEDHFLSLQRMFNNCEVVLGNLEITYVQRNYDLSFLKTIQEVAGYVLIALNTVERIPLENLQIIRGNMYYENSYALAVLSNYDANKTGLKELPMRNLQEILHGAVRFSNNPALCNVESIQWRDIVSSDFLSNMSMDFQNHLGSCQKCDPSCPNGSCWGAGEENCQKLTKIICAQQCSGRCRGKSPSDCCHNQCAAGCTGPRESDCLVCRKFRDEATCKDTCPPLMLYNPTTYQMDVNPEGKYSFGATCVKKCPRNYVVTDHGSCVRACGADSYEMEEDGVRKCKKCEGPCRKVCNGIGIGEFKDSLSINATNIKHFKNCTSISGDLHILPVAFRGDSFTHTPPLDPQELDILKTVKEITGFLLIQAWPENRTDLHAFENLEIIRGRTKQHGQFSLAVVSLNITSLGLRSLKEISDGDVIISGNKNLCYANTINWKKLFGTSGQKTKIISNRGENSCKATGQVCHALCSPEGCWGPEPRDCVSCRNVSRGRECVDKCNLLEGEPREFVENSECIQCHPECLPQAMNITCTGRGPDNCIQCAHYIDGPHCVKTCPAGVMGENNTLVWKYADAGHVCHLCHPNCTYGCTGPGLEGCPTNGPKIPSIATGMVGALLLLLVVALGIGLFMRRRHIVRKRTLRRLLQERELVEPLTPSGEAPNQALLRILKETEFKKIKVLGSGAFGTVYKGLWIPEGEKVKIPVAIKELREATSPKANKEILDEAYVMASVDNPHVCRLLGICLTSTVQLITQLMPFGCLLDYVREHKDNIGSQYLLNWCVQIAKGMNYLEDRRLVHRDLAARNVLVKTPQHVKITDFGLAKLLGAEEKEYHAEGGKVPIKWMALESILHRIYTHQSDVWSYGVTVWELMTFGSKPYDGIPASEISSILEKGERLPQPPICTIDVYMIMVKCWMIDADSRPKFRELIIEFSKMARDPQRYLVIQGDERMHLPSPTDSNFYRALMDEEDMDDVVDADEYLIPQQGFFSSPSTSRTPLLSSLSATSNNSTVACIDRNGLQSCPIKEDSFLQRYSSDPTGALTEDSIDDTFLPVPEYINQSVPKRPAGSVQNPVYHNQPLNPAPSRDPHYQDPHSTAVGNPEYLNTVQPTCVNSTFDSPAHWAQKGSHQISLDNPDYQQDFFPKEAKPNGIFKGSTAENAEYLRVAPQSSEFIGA
T6 sequence (P31749 whole entry): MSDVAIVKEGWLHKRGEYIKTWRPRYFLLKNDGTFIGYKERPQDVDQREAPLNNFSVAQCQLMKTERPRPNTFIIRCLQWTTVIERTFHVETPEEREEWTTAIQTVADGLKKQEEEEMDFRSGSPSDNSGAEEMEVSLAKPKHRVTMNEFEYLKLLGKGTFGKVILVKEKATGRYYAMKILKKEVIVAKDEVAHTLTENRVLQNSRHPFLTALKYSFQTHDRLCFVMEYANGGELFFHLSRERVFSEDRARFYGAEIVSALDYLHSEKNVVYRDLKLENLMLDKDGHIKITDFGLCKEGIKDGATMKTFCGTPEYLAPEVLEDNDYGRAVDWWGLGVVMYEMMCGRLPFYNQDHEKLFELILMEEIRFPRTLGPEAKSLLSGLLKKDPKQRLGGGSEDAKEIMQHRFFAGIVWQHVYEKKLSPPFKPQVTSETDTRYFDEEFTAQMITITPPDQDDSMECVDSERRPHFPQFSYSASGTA
T3 sequence (P36507 whole entry): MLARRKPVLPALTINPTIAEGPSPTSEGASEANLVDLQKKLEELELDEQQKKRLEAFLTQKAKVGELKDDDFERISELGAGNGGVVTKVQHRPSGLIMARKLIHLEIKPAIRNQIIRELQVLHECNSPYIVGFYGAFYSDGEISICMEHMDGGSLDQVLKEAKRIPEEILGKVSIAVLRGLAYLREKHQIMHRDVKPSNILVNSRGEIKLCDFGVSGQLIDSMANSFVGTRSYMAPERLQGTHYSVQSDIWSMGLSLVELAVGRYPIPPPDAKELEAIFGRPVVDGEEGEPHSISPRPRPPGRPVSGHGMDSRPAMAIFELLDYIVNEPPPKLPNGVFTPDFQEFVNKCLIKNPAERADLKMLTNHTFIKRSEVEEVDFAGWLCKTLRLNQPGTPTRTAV

For `COc1nc(-c2cccc3c2OCCO3)ccc1Nc1ccc(CN(C)C)cc1` [Abd-7], the “% kinase activity in the presence of Abd-7” value (“% kinase activity” below) (PDK1) was 107%, the “% kinase activity” value (BRAF) was 104% and the “% kinase activity” value (MEK2) was 101%. For the same compound, the “% kinase activity” value (PKBβ) was 93%, the “% kinase activity” value (mTOR) was 89% and the “% kinase activity” value (PKBα) was 91%. For the same compound, the “% kinase activity” value (CRAF) was 101%, the “% kinase activity” value (EGFR) was 93% and the “inhibition of AKT phosphorylation” value ([1]; DLD-1, 20 μM, 3 h) was “complete inhibition”. The “concentration at which inhibition of AKT phosphorylation initiates” value ([1]; DLD-1, starved 24 h, 3 h compound, Western) was 2 µM and the inhibition at 10 µM ([1]; Homo sapiens, DLD-1, 10 μM, 3 h) was over 50%.
